Data as given in ChEMBL document CHEMBL1201862, “PubChem BioAssay data set” (2004).
Calls of active or inactive are those of the source.

Tests used:
[1] = cytotoxicity in HEK-293T cells, dose response, cytotoxicity control for BCR NF-kB inhibitor project, luminescence, B-cell screen hits (AID 489021); type: functional, cell-based;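 also: HEK-293T cells carrying an NF-kB luciferase reporter; cells exposed to compound for about 14 hours before viability readout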
[2] = P. falciparum 3D7-ScDHODH growth inhibitors, dose response, SYBR Green, dry powder samples (AID 1159570); type: functional, cell-based;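 also: parasite growth measured after 72 hours of compound exposure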
[3] = P. falciparum ATP4 D1247Y mutant growth inhibitors, dose response, NITD609-resistant line, SYBR Green, dry powder (AID 1159571); type: functional, cell-based;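 also: parasites synchronized at ring stage by sorbitol before testing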
[4] = HepG2 cell cytotoxicity, dose response, cytotoxicity control, plate reader, dry powder samples (AID 1159569); type: functional, cell-based;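 also: inhibitor potency with signal falling toward the positive control level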
[5] = P. falciparum Dd2 growth inhibitors, dose response, SYBR Green, cherry-picked samples (AID 1159567); type: functional, cell-based
[6] = P. falciparum Dd2 growth inhibitors, dose response, SYBR Green, dry powder samples (AID 1159566); type: functional, cell-based;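 also: potency for growth inhibition with lower SYBR green DNA signal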
[7] = target: T1, High affinity choline transporter 1 (Homo sapiens, UniProt Q9GZV3); test: CHT inhibitors, dose response, cell-based, 5-point CRC, membrane potential dye (AID 504840); type: functional
T1 sequence (Q9GZV3 whole entry): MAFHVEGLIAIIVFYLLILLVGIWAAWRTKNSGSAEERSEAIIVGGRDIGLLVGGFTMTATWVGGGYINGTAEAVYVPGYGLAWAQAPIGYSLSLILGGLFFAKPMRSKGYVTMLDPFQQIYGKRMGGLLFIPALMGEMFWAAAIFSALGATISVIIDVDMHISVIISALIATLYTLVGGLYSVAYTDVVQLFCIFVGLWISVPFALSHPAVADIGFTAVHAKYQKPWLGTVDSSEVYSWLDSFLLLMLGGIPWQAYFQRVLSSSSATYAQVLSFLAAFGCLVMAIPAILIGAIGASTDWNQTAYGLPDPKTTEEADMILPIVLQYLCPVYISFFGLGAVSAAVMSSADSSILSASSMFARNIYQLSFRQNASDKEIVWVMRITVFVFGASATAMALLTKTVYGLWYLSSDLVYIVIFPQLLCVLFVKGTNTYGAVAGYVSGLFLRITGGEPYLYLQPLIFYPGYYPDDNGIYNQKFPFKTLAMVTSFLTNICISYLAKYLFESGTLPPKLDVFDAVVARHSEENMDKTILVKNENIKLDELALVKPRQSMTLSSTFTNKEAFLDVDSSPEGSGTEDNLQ

[8] = target: DNA dC->dU-editing enzyme APOBEC-3A (Homo sapiens, UniProt P31941); test: Dose Response confirmation of small molecule APOBEC3A DNA Deaminase Inhibitors via a fluorescence-based single-stranded DNA deaminase assay. [Related pubchem assays (depositor defined):AID493011, AID493024]; type: functional
DNA dC->dU-editing enzyme APOBEC-3A, sequence (P31941 whole entry): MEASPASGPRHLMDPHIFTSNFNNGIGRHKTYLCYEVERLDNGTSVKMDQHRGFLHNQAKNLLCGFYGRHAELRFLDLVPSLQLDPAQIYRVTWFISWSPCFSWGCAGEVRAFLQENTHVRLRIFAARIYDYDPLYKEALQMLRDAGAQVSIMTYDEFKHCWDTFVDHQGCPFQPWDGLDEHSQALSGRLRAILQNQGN

[9] = target: DNA dC->dU-editing enzyme APOBEC-3G (Homo sapiens, UniProt Q9HC16); type: functional;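 also: Dose-response counterscreen measuring inhibition of APOBEC3G DNA deaminase activity, run while confirming APOBEC3A inhibitors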
DNA dC->dU-editing enzyme APOBEC-3G, sequence (Q9HC16 whole entry): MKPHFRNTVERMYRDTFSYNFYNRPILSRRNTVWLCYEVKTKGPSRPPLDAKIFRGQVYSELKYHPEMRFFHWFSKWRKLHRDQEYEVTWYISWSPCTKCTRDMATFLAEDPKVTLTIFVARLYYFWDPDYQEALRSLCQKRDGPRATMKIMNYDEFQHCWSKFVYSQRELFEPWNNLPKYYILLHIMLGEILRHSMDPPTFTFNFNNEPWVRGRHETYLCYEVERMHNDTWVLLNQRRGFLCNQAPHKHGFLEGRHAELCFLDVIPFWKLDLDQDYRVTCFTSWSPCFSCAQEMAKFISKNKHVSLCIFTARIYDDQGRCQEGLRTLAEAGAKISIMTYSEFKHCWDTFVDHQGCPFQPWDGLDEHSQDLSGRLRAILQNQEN

P388 = test: cells; type: functional; settings: Mus musculus
SN12K1 = test: cells; type: functional; settings: Homo sapiens
P388/ADR = test: cells; type: functional; settings: Mus musculus
[10] = target: T2, Heat shock factor protein 1 (Mus musculus, UniProt P38532); test: inhibition of MG132-induced HSE-luciferase signal, confirmation, cell-based, NIH3T3, luminescence, dose retest (AID 2382); type: functional;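 also: NIH3T3 fibroblasts with HSF1-driven luciferase reporter stressed by proteasome inhibitor MG132; luminescence from HSF1-driven luciferase expression after 8 hours of MG132 stress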
T2 sequence (P38532 whole entry): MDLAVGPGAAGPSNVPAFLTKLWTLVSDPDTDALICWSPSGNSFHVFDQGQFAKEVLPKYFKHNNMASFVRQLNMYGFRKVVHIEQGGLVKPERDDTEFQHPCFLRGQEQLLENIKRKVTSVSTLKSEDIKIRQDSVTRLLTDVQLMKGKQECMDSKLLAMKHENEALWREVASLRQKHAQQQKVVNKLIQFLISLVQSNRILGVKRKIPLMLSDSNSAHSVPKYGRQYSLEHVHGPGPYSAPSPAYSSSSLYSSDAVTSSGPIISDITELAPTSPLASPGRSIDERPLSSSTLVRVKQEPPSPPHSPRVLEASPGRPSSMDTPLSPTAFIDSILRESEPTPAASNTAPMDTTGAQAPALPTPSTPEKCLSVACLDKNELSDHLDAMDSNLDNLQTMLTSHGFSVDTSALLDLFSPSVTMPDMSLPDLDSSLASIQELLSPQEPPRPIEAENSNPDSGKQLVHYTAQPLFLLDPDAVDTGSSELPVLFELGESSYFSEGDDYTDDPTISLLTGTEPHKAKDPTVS

[11] = microbe, parasite or virus in culture; type: functional; settings: Mycobacterium tuberculosis
[12] = THP-1 cell cytotoxicity, dose response, cytotoxicity control for non-replicating M. tuberculosis project (AID 489025); type: functional
cells = type: functional
[13] = HepG2 cell cytotoxicity, dose response, cytotoxicity control for non-replicating M. tuberculosis project (AID 489018); type: functional; settings: Mycobacterium tuberculosis

## CCN(C(=O)CN1C(=O)NC(c2ccccc2)(c2ccc(C)c(C)c2)C1=O)C1CCCCC1 (stereo not given)
[1]
  IC50: > 80 µM (inactive)

## O=C(Nc1ccccc1F)N1CCCCN2[C@@H](CO)[C@@H](c3ccc(C#Cc4cccnc4)cc3)[C@@H]2C1
[2]
  AC50: 1.95 µM (active)
[3]
  AC50: 1.35 µM (active)
[4]
  AC50: 42.6 µM (active)
[5]
  AC50: 1.33 µM (active)
[6]
  AC50: 0.95 µM (active)

## Fc1ccc(C2=Nn3c(nnc3-c3[nH]nc4c3CCC4)SC2)cc1
[1]
  IC50: > 80 µM (inactive)

## CN(Cc1ccccc1)S(=O)(=O)c1ccc2ncc(C(=O)NCC3CCCO3)c(O)c2c1 (stereo not given)
[7]
  IC50: 15.2 µM (active)

## CC[n+]1c(C)n(Cc2ccccc2)c2ccc(Cl)cc21
[8]
  IC50: 1.39 µM (active)
[9]
  IC50: 2.27 µM (active)

## CSCC[C@@H](NC(=O)[C@H](CC(C)C)NC(=O)C(Cc1cnc[nH]1)NC(=O)CNC(=O)[C@@H](NC(=O)[C@H](C)NC(=O)[C@H](Cc1cn(C=O)c2ccccc12)NC(=O)[C@H](CCC(N)=O)NC(=O)[C@@H](N)CC(N)=O)C(C)C)C(N)=O (stereo not given in full)
P388
  GI50: > 100 µM (inactive)
SN12K1
  GI50: > 100 µM (inactive)
P388/ADR
  GI50: > 100 µM (inactive)

## Cc1[nH]c(=O)[nH]c(=O)c1/C=C/C(=O)NC(CO)CC(C)C (stereo not given)
P388
  GI50: > 375 µM (inactive)
SN12K1
  GI50: > 360 µM (inactive)
P388/ADR
  GI50: 174 µM (inactive)

## Cc1ccc(-c2cc(C(=O)NCCCN3CCOCC3)no2)cc1
[10]
  EC50: 19.1 µM (active)
[1]
  IC50: > 80 µM (inactive)

## N#C[C@@H]1[C@H](c2ccc(C3=CCCCC3)cc2)[C@H](CO)N1C(=O)NC1CCCC1
[2]
  AC50: 5.81 µM (active)
[3]
  AC50: 1.41 µM (active)
[4]
  AC50: 0.338 µM (active)
[5]
  AC50: 1.96 µM (active)
[6]
  AC50: 0.923 µM (active)

## Cc1cc(C)cc(OCC(=O)N2N=C(C(F)(F)F)CC2(O)C(C)(C)C)c1 (stereo not given)
[8]
  IC50: 4.6 µM (active)
[9]
  IC50: 5.91 µM (active)

## CCN(CC)C(=O)Cn1c(C)c(/C=C/c2cc[n+](C)cc2)c2ccccc21
[8]
  IC50: 2.08 µM (active)
[9]
  IC50: 4.08 µM (active)

## CC(=O)Nc1ccc2c(COC(=O)CC3Sc4ccccc4NC3=O)cc(=O)oc2c1 (stereo not given)
[8]
  IC50: 19.3 µM (active)
[9]
  IC50: 30.7 µM (active)

## CCOc1cc(C=C2C(=O)NC(=O)NC2=O)ccc1OS(=O)(=O)c1ccccc1
[7]
  IC50: 12.6 µM (active)

## C[N+]1(CC(=O)OCCCc2ccccc2)CCCCC1
[8]
  IC50: 2.1 µM (active)
[9]
  IC50: 2.42 µM (active)

## C[C@H]1CN([C@@H](C)CO)C(=O)c2cc(NC(=O)Nc3cccc4ccccc34)ccc2O[C@H]1CN(C)C(=O)Nc1ccc(C(F)(F)F)cc1
[2]
  AC50: 1.86 µM (active)
[3]
  AC50: 3.76 µM (active)
[4]
  AC50: > 100 µM (inactive)
[5]
  AC50: 2.37 µM (active)
[6]
  AC50: 1.5 µM (active)

## Cc1ccc(N2Cc3c(ccc4ccccc34)OP2(=S)N2CCCC2)cc1 (stereo not given)
P388
  GI50: 18.6 µM (inactive)
SN12K1
  GI50: > 77.6 µM (inactive)
P388/ADR
  GI50: 26.2 µM (inactive)

## CC(C)CCC[C@@H](C)[C@H]1CC[C@H]2[C@@H]3C(=O)C=C4C[C@@H](O)CC[C@]4(C)[C@H]3CC[C@]12C [7-OXOCHOLESTEROL]
[11]
  CC50: > 40 µM (active)

## NCCCCCC(CCN)SCC1OC(n2cnc3c(N)ncnc32)C(O)C1O (stereo not given)
P388
  GI50: 637 µM (inactive)
SN12K1
  GI50: 431 µM (inactive)
P388/ADR
  GI50: 124 µM (inactive)

## CCC(=O)N1CCC2(CC1)CN(Cc1cccc(OC)c1)[C@@H](CO)c1[nH]c3cc(OC)ccc3c12
[2]
  AC50: 2.56 µM (active)
[3]
  AC50: 1.92 µM (active)
[4]
  AC50: 97.6 µM (active)
[5]
  AC50: 2.63 µM (active)
[6]
  AC50: 2.21 µM (active)

## CCCCC(Br)C(=O)Nc1ccc(S(=O)(=O)Nc2cc(C)nc(C)n2)cc1 (stereo not given)
[7]
  IC50: 15.9 µM (active)

## CC(C)(C)S(=O)(=O)/C(C#N)=N/Nc1ccc(C#N)cc1
[7]
  IC50: 12 µM (active)

## COc1ccc(C(CCNCc2ccc(OC(C)C)cc2)C(C)C)cc1 (stereo not given)
[12]
  CC50: 13.7 µM (active)
[11]
  CC50: 23.1 µM (active)
cells
  IC50: 23 µM (active)
[13]
  CC50: 13.6 µM (active)
